The target in the assay is HDAC2 (Homo sapiens, UniProt Q92769). Nature of the assay: surface plasmon resonance with recombinant HDAC2. It counts as binding.

Usually Kd stands for the constant that tells how readily two partners part at equilibrium.

Sequence of HDAC2 (Q92769 whole entry): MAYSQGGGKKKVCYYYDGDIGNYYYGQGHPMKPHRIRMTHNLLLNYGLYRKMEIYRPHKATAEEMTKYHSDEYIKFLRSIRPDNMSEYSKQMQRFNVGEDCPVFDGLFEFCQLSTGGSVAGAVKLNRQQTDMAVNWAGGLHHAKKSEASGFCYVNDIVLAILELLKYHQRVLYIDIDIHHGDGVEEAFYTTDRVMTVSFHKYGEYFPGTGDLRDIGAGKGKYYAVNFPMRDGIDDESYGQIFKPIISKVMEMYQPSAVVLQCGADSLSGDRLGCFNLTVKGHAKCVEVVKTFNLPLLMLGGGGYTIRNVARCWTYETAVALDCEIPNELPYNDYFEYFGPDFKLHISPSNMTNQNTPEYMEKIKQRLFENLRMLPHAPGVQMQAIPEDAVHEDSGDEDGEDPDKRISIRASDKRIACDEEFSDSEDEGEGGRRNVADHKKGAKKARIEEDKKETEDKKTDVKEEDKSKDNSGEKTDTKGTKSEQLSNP

Consider `COc1ccc(Nc2nnc(-c3ccc(C(=O)NO)cc3)o2)cc1` [metavert], for which the Kd worked out at 12.8 µM.
